Here are results for six compounds from PubChem BioAssay (NCI).

Some test systems named below: TK-10 renal; KM12 colon; MDA-MB-435; CCRF-CEM leukemia; BT-549 breast; SK-OV-3 ovarian; SNB-75 CNS; HCC-2998 colon; SF-539 CNS; OVCAR-5 ovarian.
Common to all, as to assay: NCI tumour cell line growth inhibition, 48 h

Where “and” joins values, the source holds several entries; their conditions need not be identical. Identical values can stand only once.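 The compound was tested at five concentrations on cells cultured in 96-well plates, with a 48-hour exposure period. GI50: concentration for 50% inhibition of growth. The concentration for full growth arrest is given as TGI.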 Where only a bound is given, the exact number is not on record here.

Regarding `CCOc1cc(C(C)(C)C)ccc1C1=N[C@@](C)(c2ccc(Cl)cc2)[C@@](C)(c2ccc(Cl)cc2)N1C(=O)N1CCN(CCS(C)(=O)=O)CC1`, the GI50 in the assay with TK-10 renal was 3.12 µM; in the assay on KM12 colon, 3.33 µM; with MDA-MB-435, 3.47 µM; in the assay with CCRF-CEM leukemia, 2600 nM; in the assay with BT-549 breast, 3.24 µM; in the assay on SK-OV-3 ovarian, 4.32 µM. For the same compound, the GI50 is 2510 nM with SNB-75 CNS, 2280 nM with HCC-2998 colon, 2320 nM with SF-539 CNS and 2.46 µM in the assay on OVCAR-5 ovarian. Besides, the TGI in the assay with TK-10 renal was determined as 10.3 µM; with KM12 colon, 11.4 µM; in the assay with MDA-MB-435, 11.7 µM; in the assay on CCRF-CEM leukemia, 7.45 µM; in the assay on BT-549 breast it was 10 µM; with SK-OV-3 ovarian, 16.1 µM. Also, the TGI in the assay on SNB-75 CNS is 14.9 µM; in the assay with HCC-2998 colon it was 4.98 µM; in the assay on SF-539 CNS it was 6.16 µM; in the assay with OVCAR-5 ovarian it was 7.8 µM.
With `COc1cc(C2c3cc4c(cc3[C@@H](Nc3ccc(N)cc3)C3COC(=O)[C@H]23)OCO4)cc(OC)c1O` (some centres undefined), the TGI in the assay on TK-10 renal was 23.7 µM; in the assay on KM12 colon it was 14.3 µM; in the assay on MDA-MB-435 it was 29.6 µM; with CCRF-CEM leukemia, 0.953 µM and 5.61 µM; in the assay with BT-549 breast, 8.5 µM; in the assay with SK-OV-3 ovarian it was 17.3 µM. Also, the TGI was 9.07 µM in the assay with HCC-2998 colon, 6.51 µM in the assay on SF-539 CNS and 31.6 µM with OVCAR-5 ovarian. In addition, the GI50 is 271 nM with CCRF-CEM leukemia; 0.805 µM with SK-OV-3 ovarian; 347 nM in the assay with SNB-75 CNS; 729 nM with SF-539 CNS; 0.896 µM with OVCAR-5 ovarian.
For the compound `CC(C)(C)C(=O)OCc1nc2cc3c(cc2c(=O)[nH]1)CCC3=O`, the GI50 in the assay with TK-10 renal is over 100 µM; in the assay with KM12 colon it was over 100 µM; in the assay on MDA-MB-435, over 100 µM; with CCRF-CEM leukemia, over 100000 nM; in the assay with BT-549 breast, over 100 µM; in the assay on SK-OV-3 ovarian it was over 100 µM. The GI50 was over 100000 nM in the assay on SNB-75 CNS, over 100000 nM in the assay on HCC-2998 colon, over 100000 nM in the assay with SF-539 CNS and over 100 µM in the assay with OVCAR-5 ovarian. The TGI with TK-10 renal, in the assay on KM12 colon, with MDA-MB-435, in the assay on CCRF-CEM leukemia, in the assay on BT-549 breast and with SK-OV-3 ovarian was over 100 µM each time. Further, the TGI in the assay with SNB-75 CNS, in the assay with HCC-2998 colon, with SF-539 CNS and in the assay with OVCAR-5 ovarian was over 100 µM in each case.
Turning to `COc1cc(-c2nn(-c3ccc(NC(=O)c4cc(Cl)cc(Cl)c4)cc3)cc2-c2ccncc2)ccc1Cl`, the GI50 with TK-10 renal was over 100 µM; in the assay on KM12 colon, 3.27 µM; with MDA-MB-435, over 100 µM; in the assay on CCRF-CEM leukemia it was 5770 nM; in the assay on BT-549 breast, over 100 µM; in the assay on SK-OV-3 ovarian, over 100 µM. For the same compound, the GI50 in the assay on SNB-75 CNS was 4140 nM; with HCC-2998 colon, 5880 nM; in the assay with SF-539 CNS it was 4730 nM; in the assay with OVCAR-5 ovarian it was over 100 µM. The TGI in the assay on TK-10 renal, in the assay on KM12 colon, with MDA-MB-435, in the assay on CCRF-CEM leukemia, in the assay with BT-549 breast and in the assay on SK-OV-3 ovarian was over 100 µM throughout. For the same compound, the TGI in the assay with SNB-75 CNS, in the assay on HCC-2998 colon, in the assay on SF-539 CNS and in the assay on OVCAR-5 ovarian was over 100 µM throughout.
On to `O=C1c2ccccc2-c2c1c1ccccc1c(=O)n2-c1ccccc1`, for which the TGI is 27 µM with TK-10 renal; over 100 µM with KM12 colon; over 100 µM with MDA-MB-435; over 100 µM in the assay with CCRF-CEM leukemia; over 52 µM in the assay on BT-549 breast; 26.4 µM with SK-OV-3 ovarian. In addition, the TGI in the assay with SNB-75 CNS was 37.1 µM; in the assay with HCC-2998 colon, over 100 µM; in the assay with SF-539 CNS, 12.3 µM; with OVCAR-5 ovarian it was over 100 µM.
As to `Oc1ccc(Cl)cc1-c1cc(-c2ccc(F)cc2)n[nH]1`, the GI50 in the assay on TK-10 renal was 3.23 µM; in the assay with KM12 colon it was 1.01 µM; in the assay on MDA-MB-435 it was 2.53 µM; with CCRF-CEM leukemia, 452 nM; with BT-549 breast, 3.59 µM; in the assay on SK-OV-3 ovarian, 1.99 µM. Further, the GI50 with SNB-75 CNS was 2070 nM; with HCC-2998 colon, 2080 nM; with SF-539 CNS it was 2100 nM; in the assay with OVCAR-5 ovarian, 5.39 µM. Further, the TGI with TK-10 renal worked out at 8.74 µM; in the assay on KM12 colon, 2.54 µM; with MDA-MB-435, 10.7 µM; in the assay with CCRF-CEM leukemia, 4.12 µM; in the assay on BT-549 breast it was 16.6 µM; with SK-OV-3 ovarian, 5.21 µM. In addition, the TGI was 9.19 µM in the assay on SNB-75 CNS, 5.95 µM with HCC-2998 colon, 4.51 µM with SF-539 CNS and over 100 µM in the assay on OVCAR-5 ovarian.
